Results on 14 molecules are retold here after paper PMC5185470 (Bioorganic & medicinal chemistry letters, 2016).

AChE, sequence (P22303 32-614): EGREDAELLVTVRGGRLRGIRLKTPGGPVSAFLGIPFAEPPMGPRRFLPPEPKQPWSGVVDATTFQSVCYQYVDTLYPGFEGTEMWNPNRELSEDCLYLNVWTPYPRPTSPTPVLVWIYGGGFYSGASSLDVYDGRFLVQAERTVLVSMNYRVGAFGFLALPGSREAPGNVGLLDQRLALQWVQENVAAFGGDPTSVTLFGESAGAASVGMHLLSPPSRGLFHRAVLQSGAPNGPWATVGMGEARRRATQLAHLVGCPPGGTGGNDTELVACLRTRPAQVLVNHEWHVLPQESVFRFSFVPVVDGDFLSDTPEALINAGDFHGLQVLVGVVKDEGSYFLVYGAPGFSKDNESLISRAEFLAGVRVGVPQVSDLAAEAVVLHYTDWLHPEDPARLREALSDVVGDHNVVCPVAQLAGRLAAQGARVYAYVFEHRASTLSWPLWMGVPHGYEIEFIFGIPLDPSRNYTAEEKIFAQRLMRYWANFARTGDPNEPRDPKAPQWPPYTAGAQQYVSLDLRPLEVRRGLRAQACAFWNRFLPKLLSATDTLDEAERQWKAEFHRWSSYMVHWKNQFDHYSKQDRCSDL

Test system in one series: not listed separately
The experiment in a line: Chemical decomposition on storage. The class given is physicochemical. The following applies: estimated, after 6 months; nitro replaced by hydroxyl.
For `CN(C)Cc1ccc(CSCCNc2nnccc2[N+](=O)[O-])o1` [JWS, N-(2-(((5-((dimethylamino)methyl)furan-2-yl)methyl)thio)ethyl)-4-nitropyridazin-3-amine], the chemical decomposition entry is “about 10%”.

A further series addresses AChE (Homo sapiens, UniProt P22303). Kind of series: biochemical.
Details: not given
The series is classed as biochemical.
Broadly, the IC50 is the concentration at which inhibition is half-maximal. Molecule `CN(C)Cc1ccc(CSCCNc2nc(N)no2)o1` [Compound 17] had an IC50 greater than 50 µM. As to `CN(C)Cc1ccc(CSCCNc2nc(N)n[nH]2)o1` [Compound 18], the 50% inhibitory concentration (IC50) is greater than 50 µM.

In the case of `CS/C(=N\S(=O)(=O)c1ccc(C)cc1)NCCSCc1ccc(CN(C)C)o1` [Compound 22], the half-maximal inhibitory concentration (IC50) is greater than 50 µM. With `Cc1ccc(S(=O)(=O)NCCSCc2ccc(CN(C)C)o2)cc1` [Compound 23], the IC50 was greater than 50 µM.

Molecule `CN(C)Cc1ccc(CSCCNC(=O)c2ccccc2-c2ccccc2C(=O)O)o1` [Compound 24] showed a 50% inhibitory concentration (IC50) greater than 50 µM. The same measure, in the same setting: for `Cc1cccc(Nc2ccccc2C(=O)NCCSCc2ccc(CN(C)C)o2)c1C` [Compound 25] the value was greater than 50 µM.

Staying with this series, now noted: vs JWS.
As to `Cc1c(-c2ccccc2)nnc(NCCSCc2ccc(CN(C)C)o2)c1[N+](=O)[O-]` [Compound 10], the “increase of AChE inhibition relative to the unsubstituted nitropyridazine” value is listed as roughly 3 fold. As for `CN(C)Cc1ccc(CSCCNc2nnc(-c3ccccc3)c(-c3ccccc3)c2[N+](=O)[O-])o1` [Compound 12], the “increase of AChE inhibition relative to the unsubstituted nitropyridazine” value was roughly 3 fold.

The series is the same for the next values; noted with them: vs donepezil IC50 = 0.050 µM.
On to `CN(C)Cc1ccc(CSCCN2C(=O)c3cccc4cc([N+](=O)[O-])cc(c34)C2=O)o1` [Compound 33], for which the “fold less active than donepezil (AChE)” value is 3 fold.

For the next series, the target named is BuChE (Homo sapiens, UniProt P06276). Kind of series: biochemical.
BuChE, sequence (P06276 29-602): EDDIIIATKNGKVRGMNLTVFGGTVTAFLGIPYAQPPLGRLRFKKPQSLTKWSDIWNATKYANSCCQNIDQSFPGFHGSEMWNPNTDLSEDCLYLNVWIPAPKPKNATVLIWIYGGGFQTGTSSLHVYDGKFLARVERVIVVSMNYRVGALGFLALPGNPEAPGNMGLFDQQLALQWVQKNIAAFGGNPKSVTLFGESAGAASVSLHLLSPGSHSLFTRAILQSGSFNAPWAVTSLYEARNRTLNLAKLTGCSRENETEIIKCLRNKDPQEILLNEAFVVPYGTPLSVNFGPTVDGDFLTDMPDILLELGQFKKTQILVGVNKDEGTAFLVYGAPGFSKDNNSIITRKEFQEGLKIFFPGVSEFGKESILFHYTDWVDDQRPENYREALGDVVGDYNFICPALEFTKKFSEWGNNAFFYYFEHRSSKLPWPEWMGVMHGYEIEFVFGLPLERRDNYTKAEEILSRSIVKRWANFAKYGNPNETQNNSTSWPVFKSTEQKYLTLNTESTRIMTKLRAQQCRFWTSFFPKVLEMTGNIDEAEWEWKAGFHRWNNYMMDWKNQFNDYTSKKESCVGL
Details: not given
The molecule `CN(C)Cc1ccc(CSCCNc2ccc(Cl)nn2)o1` [Compound 16] came in with an IC50 greater than 50 µM.

On to `CN(C)Cc1ccc(CSCCNc2nc(N)no2)o1` [Compound 17], for which the IC50 is greater than 50 µM.

`CN(C)Cc1ccc(CSCCNc2nc(N)n[nH]2)o1` [Compound 18] showed an IC50 greater than 50 µM. Same read-out and setting: to `CS/C(=N\S(=O)(=O)c1ccc(C)cc1)NCCSCc1ccc(CN(C)C)o1` [Compound 22] belongs greater than 50 µM. Turning to `CN(C)Cc1ccc(CSCCNC(=O)c2ccccc2-c2ccccc2C(=O)O)o1` [Compound 24], the IC50 is greater than 50 µM. On to `Cc1cccc(Nc2ccccc2C(=O)NCCSCc2ccc(CN(C)C)o2)c1C` [Compound 25], for which the 50% inhibitory concentration (IC50) was greater than 50 µM. `CN(C)Cc1ccc(CSCCN2C(=O)CCC2=O)o1` [Compound 27] showed an IC50 greater than 50 µM. The molecule `CC1CC(=O)N(CCSCc2ccc(CN(C)C)o2)C1=O` (centres unmarked) [Compound 28] gave an IC50 greater than 50 µM. As for `CN(C)Cc1ccc(CSCCN2C(=O)c3ccc([N+](=O)[O-])cc3C2=O)o1` [Compound 31], the IC50 was greater than 50 µM.

For the next series, the target named is T1, M2 receptor (Homo sapiens, UniProt P08172).
T1 sequence (P08172 1-466): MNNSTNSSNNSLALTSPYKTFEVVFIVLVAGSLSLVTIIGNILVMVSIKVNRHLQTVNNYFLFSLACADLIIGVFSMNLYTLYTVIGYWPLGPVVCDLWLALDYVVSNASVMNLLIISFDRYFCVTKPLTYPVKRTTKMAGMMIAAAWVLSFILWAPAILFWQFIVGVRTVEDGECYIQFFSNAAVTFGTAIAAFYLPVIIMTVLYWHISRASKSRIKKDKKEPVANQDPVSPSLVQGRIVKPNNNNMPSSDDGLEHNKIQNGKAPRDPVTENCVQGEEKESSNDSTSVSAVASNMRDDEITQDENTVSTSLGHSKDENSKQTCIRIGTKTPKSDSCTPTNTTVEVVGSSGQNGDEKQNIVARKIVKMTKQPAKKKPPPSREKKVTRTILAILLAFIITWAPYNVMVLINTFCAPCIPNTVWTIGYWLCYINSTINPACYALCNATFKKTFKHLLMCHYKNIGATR
Experiment: not given
The following applies: read-out: M2 receptors IC50; previous studies; cited from earlier work.
In the case of `CN(C)Cc1ccc(CSCCNc2nnccc2[N+](=O)[O-])o1` [JWS, N-(2-(((5-((dimethylamino)methyl)furan-2-yl)methyl)thio)ethyl)-4-nitropyridazin-3-amine], the IC50 was 0.06 µM.
